Read-outs that look alike come from different tables or passages of the source.
Test system: Human prostate PC3 tumor cells
Experiment: aFGF/bFGF-induced resistance and reversal by suramin, sulforhodamine B assay
Format: cell-based
Procedure: The experimental conditions are described briefly below. […] Cell number was measured using the sulforhodamine B assay which measures the total protein concentration. […] The FGF-induced resistance was dependent on the FGF concentrations, with a higher resistance at higher FGF concentrations.

[1] = Homo sapiens, read-out: IC50, Control (drug treatment only, without FGF treatment), No suramin, drug 96 hours
[2] = Homo sapiens, read-out: IC50, aFGF 0.3 ng/ml + bFGF 1 ng/ml, No suramin, FGF pretreatment 96 hours, drug 96 hours
[3] = Homo sapiens, read-out: IC50, aFGF 1 ng/ml + bFGF 3 ng/ml, No suramin, FGF pretreatment 96 hours, drug 96 hours
[4] = no suramin, relative to control
[5] = read-out: IC50, Control (without FGF treatment), Suramin, 15 μM, drug 96 hours with 15 μM suramin
[6] = read-out: IC50, aFGF 0.3 ng/ml + bFGF 1 ng/ml, With suramin, FGF pretreatment 96 hours, drug 96 hours with 15 micromolar suramin
[7] = read-out: IC50, aFGF 1 ng/ml + bFGF 3 ng/ml, With suramin, FGF pretreatment 96 hours, drug 96 hours with 15 micromolar suramin
[8] = read-out: IC50, Control (drug treatment only, without FGF treatment), No suramin, drug 96 hours
[9] = read-out: IC50, aFGF 0.3 ng/ml + bFGF 1 ng/ml, No suramin, FGF pretreatment 96 hours, drug 96 hours
[10] = read-out: IC50, aFGF 1 ng/ml + bFGF 3 ng/ml, No suramin, FGF pretreatment 96 hours, drug 96 hours

Structure (SMILES) | IC50 [1] [nM] | IC50 [2] [nM] | IC50 [3] [nM] | Resistance, Folds, aFGF 0.3 ng/ml + bFGF 1 ng/ml [4] [Folds] | Resistance, Folds, aFGF 1 ng/ml + bFGF 3 ng/ml [4] [Folds] | IC50 [5] [nM] | IC50 [6] [nM] | IC50 [7] [nM] | IC50 [8] [nM] | IC50 [9] [nM] | IC50 [10] [nM] | Resistance, Folds, aFGF 0.3 ng/ml + bFGF 1 ng/ml [Folds] | Resistance, Folds, aFGF 1 ng/ml + bFGF 3 ng/ml [Folds] | IC50 (Homo sapiens, 96 h, read-out: IC50, Control (drug treatment only, without FGF treatment), No suramin) [nM] | IC50 (Homo sapiens, 96 h, read-out: IC50, aFGF 0.3 ng/ml + bFGF 1 ng/ml, No suramin) [nM] | IC50 (Homo sapiens, 96 h, read-out: IC50, aFGF 1 ng/ml + bFGF 3 ng/ml, No suramin) [nM] | IC50 (read-out: IC50, Control (without FGF treatment), Suramin, 15 μM) [nM] | IC50 (read-out: IC50, aFGF 0.3 ng/ml + bFGF 1 ng/ml, With suramin) [nM] | IC50 (read-out: IC50, aFGF 1 ng/ml + bFGF 3 ng/ml, With suramin) [nM]
N[C@@H](CN(O)N=O)C(=O)O [Alanosine] | 2060 | 4180 | 7080 | 2.03 | 3.44 | 2150 | 2400 | 2120 |  |  |  |  |  |  |  |  |  |  | 
COc1cc(NS(C)(=O)=O)ccc1Nc1c2ccccc2nc2ccccc12 [Amsacrine] | 710 | 1320 | 1900 | 1.85 | 2.66 | 680 | 740 | 670 |  |  |  |  |  |  |  |  |  |  | 
O=NN(CCCl)C(=O)NCCCl [BCNU] | 33500 | 52200 | 75600 | 1.56 | 2.26 | 34200 | 36500 | 33300 |  |  |  |  |  |  |  |  |  |  | 
CS(=O)(=O)OCCCCOS(C)(=O)=O [Busulfan] | 86200 |  |  | 1.14 | 1.48 | 89200 |  |  |  |  |  |  |  |  |  |  |  |  | 
N.N.O=C([O-])C1(C(=O)[O-])CCC1.[Pt+2] [Carboplatin] |  |  |  | 1.68 | 4.04 | 2110 | 2290 | 2310 | 2250 | 3790 | 9100 |  |  |  |  |  |  |  | 
O=C(O)CCCc1ccc(N(CCCl)CCCl)cc1 [Chlorambucil] | 31900 | 53400 | 88300 | 1.67 | 2.77 | 33100 | 44400 | 37600 |  |  |  |  |  |  |  |  |  |  | 
Nc1nc(Cl)nc2c1ncn2[C@H]1C[C@H](O)[C@@H](CO)O1 [Cladribine] | 350 | 460 | 650 | 1.31 | 1.86 | 360 |  | 340 |  |  |  |  |  |  |  |  |  |  | 
O=P1(N(CCCl)CCCl)NCCCO1 (stereo not shown) [Cyclophosphamide] |  |  |  |  |  |  |  |  |  |  |  | 2.18 | 3.00 | 510 | 1110 | 1530 | 480 | 570 | 500
Nc1ccn([C@@H]2O[C@H](CO)[C@@H](O)[C@@H]2O)c(=O)n1 [Cytarabine/Ara-C, Cytarabine] |  |  |  | 3.26 | 8.41 | 460 | 420 | 450 | 390 | 1270 | 3260 |  |  |  |  |  |  |  | 
CN(C)/N=N/c1[nH]cnc1C(N)=O [Dacarbazine] | 36600 | 53700 | 108000 | 1.47 | 2.95 | 37600 | 32400 | 39700 |  |  |  |  |  |  |  |  |  |  | 
COc1cccc2c1C(=O)c1c(O)c3c(c(O)c1C2=O)C[C@@](O)(C(C)=O)C[C@@H]3O[C@H]1C[C@H](N)[C@H](O)[C@H](C)O1 [Daunorubicin] | 29.4 | 97.4 | 157 | 3.31 | 5.33 | 29.1 | 26.5 | 30.2 |  |  |  |  |  |  |  |  |  |  | 
C/C=C1\NC(=O)[C@H]2CSSCC/C=C/[C@H](CC(=O)N[C@H](C(C)C)C(=O)N2)OC(=O)[C@H](C(C)C)NC1=O [Depsipeptide] | 1.12 | 1.55 | 2.16 | 1.38 | 1.93 | 1.03 | 1.16 | 1.16 |  |  |  |  |  |  |  |  |  |  | 
COc1cccc2c1C(=O)c1c(O)c3c(c(O)c1C2=O)C[C@@](O)(C(=O)CO)C[C@@H]3O[C@H]1C[C@H](N)[C@@H](O)[C@H](C)O1 [Epirubicin] | 102 | 167 | 282 | 1.63 | 2.75 | 120 | 122 | 137 |  |  |  |  |  |  |  |  |  |  | 
COc1cc([C@@H]2c3cc4c(cc3[C@@H](O[C@@H]3O[C@@H]5CO[C@@H](C)O[C@H]5[C@H](O)[C@H]3O)[C@H]3COC(=O)[C@H]23)OCO4)cc(OC)c1O [Etoposide] | 1840 | 2340 | 3400 | 1.27 | 1.85 | 1750 | 1600 | 1610 |  |  |  |  |  |  |  |  |  |  | 
Nc1ccn([C@@H]2O[C@H](CO)[C@@H](O)C2(F)F)c(=O)n1 [Gemcitabine] | 6.84 | 9.61 | 13.1 | 1.41 | 1.91 | 6.95 | 6.12 | 5.99 |  |  |  |  |  |  |  |  |  |  | 
CC(=O)[C@]1(O)Cc2c(O)c3c(c(O)c2[C@@H](O[C@H]2C[C@H](N)[C@H](O)[C@H](C)O2)C1)C(=O)c1ccccc1C3=O [Idarubicin] | 4.45 | 11.9 | 31.2 | 2.67 | 7.01 | 5.05 |  | 4.3 |  |  |  |  |  |  |  |  |  |  | 
O=P1(NCCCl)OCCCN1CCCl (stereo not shown) [Ifosfamide] | 2660 | 5010 | 8120 | 1.88 | 3.05 | 2230 | 2220 | 2550 |  |  |  |  |  |  |  |  |  |  | 
N[C@@H](Cc1ccc(N(CCCl)CCCl)cc1)C(=O)O [Melphalan] | 4190 | 12800 | 24600 | 3.07 | 5.87 | 4020 | 4480 | 3970 |  |  |  |  |  |  |  |  |  |  | 
O=C1NC(=S)NC(=O)C1C(=O)Nc1ccccc1 [Merbarone] | 23000 | 46700 | 80800 | 1.67 | 2.89 | 28600 | 24900 | 29400 |  |  |  |  |  |  |  |  |  |  | 
CN(Cc1cnc2nc(N)nc(N)c2n1)c1ccc(C(=O)N[C@@H](CCC(=O)O)C(=O)O)cc1 [Methotrexate] | 32100 | 60600 | 80600 | 1.89 | 2.51 | 28800 | 30600 | 33700 |  |  |  |  |  |  |  |  |  |  | 

From patent US20040010001A1, “Methods and compositions for modulating cell proliferation and cell death” (priority 1999, published 2004)
